# According to patent US9814754B2, “Combinations with a backbone-cyclized peptide” (POLYPHOR AG, priority 2012, dated 2017):
# Square brackets hold non-standard residues; d marks the D form. dDab = NCC[C@@H](N)C(=O)O; Orn = NCCC[C@H](N)C(=O)O; Dab = NCC[C@H](N)C(=O)O
# Test system: Pseudomonas aeruginosa clinical isolate PAX11045
# Assay: Murine pneumonia model, compound 1 in combination with ertapenem (Example 1)
# Type: in vivo
# Method: The efficacy and ED50 of the compound of formula (I) (“compound 1”) in combination with ertapenem was determined against Pseudomonas aeruginosa clinical isolate PAX11045 in a pneumonia model in mice. Colony counts in lung were determined at 20 hours post treatment.
# Fresh overnight colonies of PAX11045 from a 5% Horse Blood Agar plate were suspended in 0.9% sterile saline to approximately 10^8 CFU/ml and further diluted to approximately 5×10^7 CFU/ml. Female mice (DBA/2, outbred, 18-22 g, Charles River) were anesthetized with 0.1 ml of Zoletil and inoculated via the nose with a pipette with 0.05 ml of the bacteria suspension containing approximately 10^6 CFU. 4 hours after inoculation, the mice were treated orally with 45 μl neurophen (20 mg ibuprofen/ml corresponding to approximately 30 mg/kg) as pain relief.
# 1 g of ertapenem (Invanz™, MSD Denmark Aps) was dissolved in 10 ml 0.9% sterile saline to a concentration of 100 mg/ml and further diluted with saline to 5 mg/ml. The mice were treated subcutaneously with 0.2 ml in the neck region with a single dose at 3 hours post infection corresponding to 50 mg/kg on the basis of a mean animal weight of 20 g.
# The mice were treated subcutaneously with 0.2 ml in the neck region with a single dose at 4 hours post infection with a dose calculation based on a mean animal weight of 20 g.
# Colony counts were determined post inoculation at 4 hours (untreated mice) and 24 hours (treated and vehicle-only treated mice). Immediately after the mice were sacrificed, the lungs were collected and frozen at −20° C. After thawing, the organs were homogenized in 1 ml 0.9% saline. Each sample was then 10 fold diluted in saline and 20 μl spots were applied on blood agar plates. All agar plates were incubated 18-24 hours at 35° C. in ambient air.
# The CFU/ml in the inoculum was determined to 7.65 log10 CFU/ml corresponding to 6.35 log10 CFU/mouse.
# At 4 hours after infection the mean log10 CFU/lung was 5.14 and the CFU level remained at a similar level after 24 hours in the vehicle-only group.
# [1] = in presence of 50 mg/kg ertapenem, murine lungs
substance,measurement,setting,value
cyclo(TWI[Dab][Orn][dDab][Dab]W[Dab][Dab]AS[dP]P) [compound 1],effect on bacterial loads,"2.75 mg/kg alone, lung, p<0.001",significant effect on reducing the bacterial loads
same,CFU levels compared to vehicle treatment,"combination of compound 1 (dose series) and ertapenem 50 mg/kg, lung, p<0.01-p<0.001",concentration dependent significant reduction of the CFU levels
same,Top level,"compound 1 s.c. in presence of 50 mg/kg ertapenem (s.c., 3 h post infection), murine lungs",−0.34 log10 CFU/ml
same,1 log killing dose,[1],1.14 mg/kg
same,2 log killing dose,[1],1.48 mg/kg
same,Bottom level,[1],−2.32 log10 CFU/ml
same,Emax,[1],1.98 log10 CFU/ml
same,Static dose,[1],0.63 mg/kg
same,ED50,"in presence of fixed dose of 50 mg/kg ertapenem, murine lungs",1.24 mg/kg
